Data: ChEMBL document CHEMBL1156617, “Heme activates artemisinin more efficiently than hemin, inorganic iron, or hemoglobin” (Bioorg Med Chem, 2008)
Activity calls are given as the source filed them. The rule behind the calls is not given here.

Experiments:
[1] = Binding affinity to oxyhemoglobin in phosphate buffer at pH 7.0 at room temperature over 24 hrs by spectrophotometry
[2] = Binding affinity to oxyhemoglobin in ammonium acetate buffer at pH 8.0 over 24 hrs by spectrophotometry
[3] = Binding affinity to methemoglobin in phosphate buffer at pH 5.0 over 30 mins by spectrophotometry
[4] = Binding affinity to methemoglobin in phosphate buffer at pH 7.0 over 30 mins by spectrophotometry
[5] = Binding affinity to oxyhemoglobin in phosphate buffer at pH 7.0 at 37 degC over 24 hrs by spectrophotometry
[6] = Binding affinity to hemin in sodium acetate buffer at pH 5.0
[7] = Binding affinity to heme in ammonium acetate buffer at pH 5.0 at 40 uM in presence of ferrocyanide
[8] = Binding affinity to heme in sodium acetate buffer at pH 5.0

| SMILES | Activity [1] | Activity [2] | Activity [3] | Activity [4] | Activity [5] | Activity [6] | Activity [7] | Activity [8] |
| --- | --- | --- | --- | --- | --- | --- | --- | --- |
| C[C@H]1[C@H](OC(=O)CCC(=O)O)O[C@@H]2O[C@@]3(C)CC[C@H]4[C@H](C)CC[C@@H]1[C@@]24OO3 | inactive | inactive | inactive | inactive | inactive |  |  |  |
| C[C@@H]1CC[C@H]2[C@@H](C)C(=O)O[C@@H]3O[C@@]4(C)CC[C@@H]1[C@]32OO4 |  |  |  |  |  | inactive | Active | Dose-dependent effect |
